ChEMBL document CHEMBL4765421, “Synthesis of natural 3'-Prenylchalconaringenin and biological evaluation of ameliorating non-alcoholic fatty liver disease and metabolic syndrome” (Eur J Med Chem, 2020)
Active and inactive are the calls of the source. The calls are words filed in the database; no cut-off is given here.

Assays:
[1] = system: Mus musculus; experiment: In vivo induction of AMPK in tyloxapol-induced Kunming mouse model of hyperlipidemia assessed as increase in AKT phosphorylation in white adipose tissue at 50 to 100 mg/kg, po measured after 24 hrs by Western blot analysis; format: functional, organism-based; conditions: dose 50-100 mg/kg
[2] = system: Mus musculus; experiment: Hypolipidemic activity in tyloxapol-induced Kunming mouse model of hyperlipidemia assessed as kidney index at 50 mg/kg, po measured after 24 hrs (reference value: 11.20 +/- 0.58); format: functional
[3] = system: Mus musculus; experiment: Hypolipidemic activity in tyloxapol-induced Kunming mouse model of hyperlipidemia assessed as increase in appearance of hepatic lobules at 50 to 100 mg/kg, po measured after 24 hrs by Oil Red O staining based assay; format: functional, organism-based; conditions: dose 50-100 mg/kg
[4] = system: 3T3-L1; experiment: Activation of AMPK in mouse 3T3-L1 preadipocytes assessed as increase in ACC phosphorylation at 0.1 to 15 uM by Western blot analysis; format: cell-based; conditions: filed as activator, dose 0.1-15 µM
[5] = system: Mus musculus; experiment: Hypolipidemic activity in tyloxapol-induced Kunming mouse model of hyperlipidemia assessed as epididymis white adipose tissue index at 50 mg/kg, po measured after 24 hrs (reference value: 23.43 +/- 3.10); format: functional
[6] = system: Mus musculus; experiment: Hypolipidemic activity in tyloxapol-induced Kunming mouse model of hyperlipidemia assessed as perirenal white adipose tissue index at 100 mg/kg, po measured after 24 hrs (reference value: 18.14 +/- 1.44); format: functional
[7] = system: Mus musculus; experiment: Hypolipidemic activity in tyloxapol-induced Kunming mouse model of hyperlipidemia assessed as reduction in serum IL6 level at 50 to 100 mg/kg, po measured after 24 hrs; format: functional, organism-based; conditions: dose 50-100 mg/kg
[8] = system: Mus musculus; experiment: Hypolipidemic activity in tyloxapol-induced Kunming mouse model of hyperlipidemia assessed as kidney index at 100 mg/kg, po measured after 24 hrs (reference value: 11.20 +/- 0.58); format: functional
[9] = system: 3T3-L1; experiment: Hypolipidemic activity in mouse 3T3-L1 preadipocytes assessed as reduction in lipid content at 5 uM by Oil Red O staining based assay relative to control; format: functional; set-up: scale not given: the % may be the effect or the level left
[10] = system: Mus musculus; experiment: In vivo effect on PPAR signaling in tyloxapol-induced Kunming mouse model of hyperlipidemia assessed as increase in PPARalpha expression in white adipose tissue at 50 to 100 mg/kg, po measured after 24 hrs by Western blot analysis; format: functional, organism-based; conditions: dose 50-100 mg/kg
[11] = system: 3T3-L1; experiment: Hypolipidemic activity in mouse 3T3-L1 mature adipocytes assessed as reduction in triglyceride content; format: functional, cell-based
[12] = system: Mus musculus; experiment: In vivo effect on PPAR signaling in tyloxapol-induced Kunming mouse model of hyperlipidemia assessed as increase in PPARalpha expression in liver at 50 to 100 mg/kg, po measured after 24 hrs by Western blot analysis; format: functional, organism-based; conditions: dose 50-100 mg/kg
[13] = system: Mus musculus; experiment: Hypolipidemic activity in tyloxapol-induced Kunming mouse model of hyperlipidemia assessed as reduction in serum AST level administered orally measured after 24 hrs; format: functional, organism-based
[14] = system: Mus musculus; experiment: In vivo induction of AMPK in tyloxapol-induced Kunming mouse model of hyperlipidemia assessed as increase in AMPKalpha phosphorylation in white adipose tissue at 50 to 100 mg/kg, po measured after 24 hrs by Western blot analysis; format: functional, organism-based; conditions: dose 50-100 mg/kg
[15] = system: 3T3-L1; experiment: Activation of AMPK in mouse 3T3-L1 matured adipocytes assessed as increase in ACC phosphorylation at 1 uM by Western blot analysis relative to control; format: cell-based; conditions: filed as activator
[16] = system: Mus musculus; experiment: Hypolipidemic activity in tyloxapol-induced Kunming mouse model of hyperlipidemia assessed as reduction in liver ALT level administered orally measured after 24 hrs; format: functional, organism-based
[17] = system: Mus musculus; experiment: Hypolipidemic activity in tyloxapol-induced Kunming mouse model of hyperlipidemia assessed as liver index at 50 mg/kg, po measured after 24 hrs (reference value: 65.00 +/- 0.87); format: functional
[18] = system: Mus musculus; experiment: In vivo induction of AMPK in tyloxapol-induced Kunming mouse model of hyperlipidemia assessed as decrease in FAS expression in white adipose tissue at 50 to 100 mg/kg, po measured after 24 hrs by Western blot analysis; format: functional, organism-based; conditions: dose 50-100 mg/kg
[19] = system: Mus musculus; experiment: Hypolipidemic activity in tyloxapol-induced Kunming mouse model of hyperlipidemia assessed as reduction in fatty liver phenotype at 50 to 100 mg/kg, po measured after 24 hrs; format: functional, organism-based; conditions: dose 50-100 mg/kg
[20] = system: Mus musculus; experiment: Hypolipidemic activity in tyloxapol-induced Kunming mouse model of hyperlipidemia assessed as reduction in serum LDL level administered orally measured after 24 hrs; format: functional, organism-based
[21] = system: Mus musculus; experiment: In vivo effect on PPAR signaling in tyloxapol-induced Kunming mouse model of hyperlipidemia assessed as increase in PPARbeta expression in liver at 50 to 100 mg/kg, po measured after 24 hrs by Western blot analysis; format: functional, organism-based; conditions: dose 50-100 mg/kg
[22] = system: Mus musculus; experiment: Hypolipidemic activity in tyloxapol-induced Kunming mouse model of hyperlipidemia assessed as reduction in serum triglyceride level administered orally measured after 24 hrs; format: functional, organism-based
[23] = system: 3T3-L1; experiment: Hypolipidemic activity in mouse 3T3-L1 mature adipocytes assessed as reduction in lipid content at 1 uM by Oil Red O staining based assay relative to control; format: functional; set-up: scale not given: the % may be the effect or the level left
[24] = system: Mus musculus; experiment: Hypolipidemic activity in tyloxapol-induced Kunming mouse model of hyperlipidemia assessed as reduction in liver MPO level at 50 to 100 mg/kg, po measured after 24 hrs; format: functional, organism-based; conditions: dose 50-100 mg/kg
[25] = system: Mus musculus; experiment: Hypolipidemic activity in tyloxapol-induced Kunming mouse model of hyperlipidemia assessed as liver index at 100 mg/kg, po measured after 24 hrs (reference value: 65.00 +/- 0.87); format: functional
[26] = system: Mus musculus; experiment: In vivo effect on PPAR signaling in tyloxapol-induced Kunming mouse model of hyperlipidemia assessed as decrease in PPARbeta expression in white adipose tissue at 50 to 100 mg/kg, po measured after 24 hrs by Western blot analysis; format: functional, organism-based; conditions: dose 50-100 mg/kg
[27] = system: Mus musculus; experiment: Hypolipidemic activity in tyloxapol-induced Kunming mouse model of hyperlipidemia assessed as epididymis white adipose tissue index at 100 mg/kg, po measured after 24 hrs (reference value: 23.43 +/- 3.10); format: functional
[28] = system: Mus musculus; experiment: In vivo induction of AMPK in tyloxapol-induced Kunming mouse model of hyperlipidemia assessed as decrease in FAS expression in liver at 50 to 100 mg/kg, po measured after 24 hrs by Western blot analysis; format: functional, organism-based; conditions: dose 50-100 mg/kg
[29] = system: Mus musculus; experiment: Hypolipidemic activity in tyloxapol-induced Kunming mouse model of hyperlipidemia assessed as reduction in lipid level in liver at 50 to 100 mg/kg, po measured after 24 hrs by Oil Red O staining based assay; format: functional, organism-based; conditions: dose 50-100 mg/kg
[30] = system: Mus musculus; experiment: Hypolipidemic activity in tyloxapol-induced Kunming mouse model of hyperlipidemia assessed as reduction in liver total cholesterol level administered orally measured after 24 hrs; format: functional, organism-based
[31] = system: HepG2; experiment: Cytotoxicity against human HepG2 cells assessed as reduction in cell viability at 10 to 20 uM by MTT assay; format: cell-based; conditions: hepg2, 20 µM, dose 10-20 µM
[32] = system: Mus musculus; experiment: Hypolipidemic activity in tyloxapol-induced Kunming mouse model of hyperlipidemia at 50 to 100 mg/kg, po measured after 24 hrs by Masson's trichrome staining based assay; format: functional, organism-based; conditions: dose 50-100 mg/kg
[33] = system: 3T3-L1; experiment: Hypolipidemic activity in mouse 3T3-L1 preadipocytes assessed as reduction in lipid content at 15 uM by Oil Red O staining based assay relative to control; format: functional; set-up: scale not given: the % may be the effect or the level left
[34] = system: 3T3-L1; experiment: Hypolipidemic activity in mouse 3T3-L1 preadipocytes assessed as reduction in lipid content at 10 uM by Oil Red O staining based assay relative to control; format: functional; set-up: scale not given: the % may be the effect or the level left

For `CC(C)=CCC/C(C)=C/Cc1c(O)cc(O)c(C(=O)/C=C/c2ccc(O)cc2)c1O`, the Activity [1] was “Active”, the Activity_index [2] was 9.46 and the Activity [3] was “Active”. The Activity [4] was “Active”, the Activity_index [5] was 14.85 and the Activity_index [6] was 9.83. The Activity [7] was “Active”, the Activity_index [8] was 9.29 and the Activity [9] was 49.29%. For the same compound, the Activity [10] was “Active”, the Activity [11] was “Dose-dependent effect” and the Activity [12] was “Active”. For the same compound, the Activity [13] was “Dose-dependent effect”, the Activity [14] was “Active” and the Activity [15] was 260%. The Activity [16] was “Dose-dependent effect”, the Activity_index [17] was 55.64 and the Activity [18] was “Active”. The Activity [19] was “Active”, the Activity [20] was “Dose-dependent effect” and the Activity [21] was “Active”. For the same compound, the Activity [22] was “Dose-dependent effect”, the Activity [23] was 39.16% and the Activity [24] was “Active”. The Activity_index [25] was 52.78, the Activity [26] was “Active” and the Activity_index [27] was 12.35. For the same compound, the Activity [28] was “Active”, the Activity [29] was “Active” and the Activity [30] was “Dose-dependent effect”. For the same compound, the Activity [31] was “Non-Toxic”, the Activity [32] was “Active” and the Activity [33] was 83.91%. It also gave an Activity [34] of 67.87%.
